PMC12392461, “Beyond Estrogenicity: A Comparative Assessment of Bisphenol A and Its Alternatives in In Vitro Assays Questions Safety of Replacements” (Environmental Science & Technology, 2025)

Tests used:
[1] = target: T1, Peroxisome proliferator-activated receptor γ (Homo sapiens, UniProt P37231); assay: cell-based; conditions: for EC10, linear: linear model; for logEC10: log-logistic model
T1 sequence (P37231 238-505 limits assumed): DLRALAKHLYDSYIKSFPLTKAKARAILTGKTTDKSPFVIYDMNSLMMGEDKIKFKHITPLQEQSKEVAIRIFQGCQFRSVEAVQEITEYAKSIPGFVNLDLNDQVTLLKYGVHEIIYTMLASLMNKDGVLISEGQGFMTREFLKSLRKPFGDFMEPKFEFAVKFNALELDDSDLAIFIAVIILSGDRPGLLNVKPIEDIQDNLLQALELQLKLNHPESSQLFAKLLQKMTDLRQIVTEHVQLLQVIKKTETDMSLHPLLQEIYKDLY
Text: (§1) All bioassay media components and the ERα-UAS-bla GripTite and PPARγ-UAS-bla cells were obtained from Thermo Fisher Scientific (Waltham, MA, USA). AREc32 reporter gene cells based on MCF7 were provided by C. Roland Wolf (Cancer Research UK); AhR CALUX cells (H4L7.5c2 derived from H4IIe) were provided by Michael Denison (UC Davis, USA); and SH-SY5Y cells were purchased from Sigma-Aldrich.
(§2) Cell culture conditions and bioassay protocols including response detection are provided in Text S2.1–2.4 and Table S3. − Cell viability was determined from cell confluency using an IncuCyte S3 Live-Cell Analysis System (Sartorius AG, Essen, Germany) before and after exposure, except for SH-SY5Y cells (live–dead staining with Nuclear Green LcS1 and propidium iodide, Abcam, UK). For metabolic activation experiments, cell viability was assessed using the ToxBLAzer DualScreen Kit (Thermo Fisher Scientific) to capture the remaining toxicity in ERα-UAS-bla GripTite after treatment with the aCYP catalyst (details in Text S2.4).
For ARE, the concentration that triggered an induction ratio of 1.5 (ECIR1.5) was used as the benchmark value, as detailed in Text S2.5. IC10 values also served as a threshold for data analysis in all assays; only concentrations below IC10 were considered when deriving EC10 or ECIR1.5.
The maximum efficacy (Emax%) refers to the maximum of the log–logistic concentration–response curve attained by test chemicals compared to the reference chemical’s maximum and was obtained for both ERα and PPARγ. […]
(§3) S2: Cell culture and bioassays
(§4) S2.1: Cell Culturing Conditions
All suppliers and sources are given in detail in SI-Excel S3. The bioassay media for the different assays were prepared as follows: Assay medium for ER alpha-UAS-bla GripTite (ERα) and […]
2% charcoal-stripped FBS, and 100 U/mL penicillin-streptomycin. […]
S2.2: Cell Seeding and Incubation. For all bioassays, cell suspensions in the respective assay medium were dispensed into each well of 384-well plates using a MultiFlo Dispenser (Biotek, (now Agilent), Winooski, VT, U.S.). After seeding, the plates were incubated at 37° C and 5% CO₂ for […]. The final cell densities and plate types were as follows: Black poly-D-lysine […]
6500 cells/well, ERα: 5000 cells/well. White 384-well plates with a clear bottom (Product No. […]
S2.3: Chemical Dosing and Assay Analysis Procedures.

[2] = target: T2, Aryl hydrocarbon receptor (Rattus norvegicus, UniProt P41738); conditions: for EC10, linear / logEC10 / EC10, linear transformed: Bioassay AhR, dosing range all; for EC10, linear: linear model fit; for logEC10: log-logistic model fit; for log(1/EC10) AhR: input of the ToxPi score, values up to 1.00; for SR-ScoreAhR: SR-Score, sigma k=1, x=5; for EC10, AhR: effect
T2 sequence (P41738 10-853): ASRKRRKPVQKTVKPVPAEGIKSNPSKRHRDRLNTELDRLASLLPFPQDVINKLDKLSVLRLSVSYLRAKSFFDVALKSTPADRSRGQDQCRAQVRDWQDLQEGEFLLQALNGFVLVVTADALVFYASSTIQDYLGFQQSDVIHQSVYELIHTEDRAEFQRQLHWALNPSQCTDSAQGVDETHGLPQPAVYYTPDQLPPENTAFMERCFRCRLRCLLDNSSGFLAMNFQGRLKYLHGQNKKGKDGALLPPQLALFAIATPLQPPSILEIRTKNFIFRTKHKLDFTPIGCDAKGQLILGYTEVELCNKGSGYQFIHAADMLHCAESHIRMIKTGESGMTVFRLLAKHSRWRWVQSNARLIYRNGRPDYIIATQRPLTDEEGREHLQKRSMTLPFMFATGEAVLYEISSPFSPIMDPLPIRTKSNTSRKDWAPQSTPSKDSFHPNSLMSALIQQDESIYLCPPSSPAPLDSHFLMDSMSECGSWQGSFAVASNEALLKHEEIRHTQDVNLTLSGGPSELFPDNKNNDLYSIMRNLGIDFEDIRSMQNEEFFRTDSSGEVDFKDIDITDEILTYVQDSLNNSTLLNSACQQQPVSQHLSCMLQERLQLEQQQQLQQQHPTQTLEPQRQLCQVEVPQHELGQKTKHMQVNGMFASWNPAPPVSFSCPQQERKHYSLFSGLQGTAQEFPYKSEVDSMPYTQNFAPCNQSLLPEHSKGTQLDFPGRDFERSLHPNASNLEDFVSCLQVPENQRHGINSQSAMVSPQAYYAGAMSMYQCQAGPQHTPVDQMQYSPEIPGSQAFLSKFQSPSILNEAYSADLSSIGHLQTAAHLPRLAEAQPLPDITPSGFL
Text: as §1, §2
For ARE, the concentration that triggered an induction ratio of 1.5 (ECIR1.5) was used as the benchmark value, as detailed in Text S2.5. IC10 values also served as a threshold for data analysis in all assays; only concentrations below IC10 were considered when deriving EC10 or ECIR1.5. […]
as §3, §4
All suppliers and sources are given in detail in SI-Excel S3. The bioassay media for the different assays were prepared as follows: Assay medium for ER alpha-UAS-bla GripTite (ERα) and PPAR gamma-UAS-bla 293H (PPARγ) was prepared with 98% Opti-MEM, supplemented with 2% charcoal-stripped FBS, and 100 U/mL penicillin-streptomycin. MitoOxTox and AhR assay medium was comprised of 90% DMEM with GlutaMAX, supplemented with 10% FBS, and 100 U/mL penicillin-streptomycin. Neurotoxicity assay medium consisted of the neurobasal […]
(1 picture or pasted object on this page, not shown here) […]
medium, supplemented with 2% B-27 Supplement and 2 mM GlutaMAX Supplement. SH - SY5Y cells were differentiated with 10 µM all-trans retinoic acid prior to the assay.
S2.2: Cell Seeding and Incubation. For all bioassays, cell suspensions in the respective assay medium were dispensed into each well of 384-well plates using a MultiFlo Dispenser (Biotek, (now Agilent), Winooski, VT, U.S.). After seeding, the plates were incubated at 37° C and 5% CO₂ for […]. The final cell densities and plate types were as follows: Black poly-D-lysine coated 384-well plates (Product No. 354663, Corning Inc., NYC, U.S.) were used for PPARγ:
6500 cells/well, ERα: 5000 cells/well. White 384-well plates with a clear bottom (Product No.
781098, Greiner, Kremsmünster, Austria) were utilized for the MitoOxTox assay: 2650

[3] = PPARγ bioassay, dosing range all

In the case of `CC1(C)C(O)C(C)(C)C1O` (racemic) [r-TMCD, 2,2,4,4-Tetramethyl-1,3-cyclobutanediol (racemate)], the “EC10, linear” value [1, 3] is reported as “no effect”, the logEC10 [1, 3] is reported as “no effect” and the “EC10, linear” value [2] is reported as “no effect”. The logEC10 [2] was “no effect”.

For `O=S(=O)(c1ccc(O)cc1)c1ccccc1O` [2,4-BPS, 2,4'-Dihydroxydiphenyl sulfone], the “EC10, linear” value [1, 3] was “no effect”, the logEC10 [1, 3] was “no effect” and the “EC10, linear” value [2] was “no effect”. For the same compound, the logEC10 [2] was “no effect” and the “log(1/EC10) AhR” value [2] was 0.74.

In the case of `CC(C)(c1ccc(OCC2CO2)cc1)c1ccc(OCC2CO2)cc1` (stereo not shown) [BADGE, Bisphenol A diglycidyl ether], the “EC10, linear” value [1, 3] is reported as “no effect”, the logEC10 [1, 3] is reported as “no effect” and the “EC10, linear” value [2] is reported as “no effect”. For the same compound, the logEC10 [2] was “no effect”.

With `CC(C)CC(C)(c1ccc(O)cc1)c1ccc(O)cc1` [BP-MIBK, 4,4'-(1,3-Dimethylbutylidene)diphenol] the “EC10, linear” value [1, 3] was “no effect”, the logEC10 [1, 3] was “no effect” and the “EC10, linear” value [2] was “no effect”. The logEC10 [2] was “no effect” and the “log(1/EC10) AhR” value [2] was 0.86.

For `CC(C)(c1ccc(O)cc1)c1ccc(O)cc1` [BPA, 4,4'-(Propane-2,2-diyl)diphenol, reference compound], the “EC10, linear” value [1, 3] was “no effect”, the logEC10 [1, 3] was “no effect” and the PPARγ activation ([1]; at concentrations up to IC10) was “did not activate PPARγ”. The “EC10, AhR (M)” value [2] was 2.64 × 10^–4 M, the “EC10, linear transformed” value [2] was 3.80E-04 and the “EC10, linear” value [2] was 2.64E-04. The logEC10 [2] was “no effect”, the SR-ScoreAhR [2] was 0.00737 and the “Specificity ratio (SRbaseline) SRAhR” value ([2]; against baseline cytotoxicity) was 0.10. For the same compound, the “EC10, AhR” value [2] was 264 µM, the “log(1/EC10) AhR” value [2] was 0.79 and the “Specificity ratio (SRcytotoxicity) SRAhR” value ([2]; rat, 24 h) was 0.00. The “SR (AhR)” value ([2]; specificity ratio) was at most 10.

For `Oc1ccc(C(c2ccc(O)cc2)(C(F)(F)F)C(F)(F)F)cc1` [BPAF, 4,4'-(1,1,1,3,3,3-Hexafluoropropane-2,2-diyl)diphenol], the “EC10, linear” value [1, 3] was “no effect”, the logEC10 [1, 3] was “no effect” and the “EC10, linear” value [2] was “no effect”. The logEC10 [2] was “no effect” and the “log(1/EC10) AhR” value [2] was 0.92.

`CC(c1ccccc1)(c1ccc(O)cc1)c1ccc(O)cc1` [BPAP, 4,4'-(1-Phenylethylidene)bisphenol] was tested, and the “EC10, linear” value [1, 3] was “no effect”, the logEC10 [1, 3] was “no effect” and the “EC10, linear” value [2] was “no effect”. The logEC10 [2] was “no effect”.

With `CCC(C)(c1ccc(O)cc1)c1ccc(O)cc1` [BPB, 4,4'-(Butane-2,2-diyl)diphenol] the “EC10, linear” value [1, 3] was “no effect”, the logEC10 [1, 3] was “no effect” and the “EC10, linear” value [2] was “no effect”. The logEC10 [2] was “no effect” and the “log(1/EC10) AhR” value [2] was 0.83.

In the case of `CC(c1ccc(O)cc1)c1ccc(O)cc1` [BPE, 4,4′-Ethylidenbisphenol], the “EC10, linear” value [1, 3] is reported as “no effect”, the logEC10 [1, 3] is reported as “no effect” and the “EC10, AhR (M)” value [2] is reported as 6.19 × 10^–5 M. The “EC10, linear transformed” value [2] was 7.73E-05, the “EC10, linear” value [2] was 6.19E-05 and the logEC10 [2] was -4.12. The SR-ScoreAhR [2] was 0.0256 and the “EC10, AhR” value [2] was 61.9 µM.

In the case of `Oc1ccc(Cc2ccc(O)cc2)cc1` [BPF, Bis(4-hydroxyphenyl)methane], the “EC10, linear” value [1, 3] is reported as “no effect”, the logEC10 [1, 3] is reported as “no effect” and the “EC10, linear transformed” value [2] is reported as 2.17E-04. For the same compound, the “EC10, linear” value [2] was 1.67E-04, the logEC10 [2] was “masked by cytotoxicity” and the “log(1/EC10) AhR” value [2] was 0.66.

In the case of `CC(C)c1cc(C(C)(C)c2ccc(O)c(C(C)C)c2)ccc1O` [BPG, 2,2-Bis(4-hydroxy-3-isopropylphenyl)propane], the “EC10, PPARγ (M)” value ([1]; 10% of maximum effect of rosiglitazone) is reported as 1.17 × 10^–7 M, the “EC10, linear transformed” value [1, 3] is reported as 1.17E-07 and the “EC10, linear” value [1, 3] is reported as 1.61E-07. For the same compound, the logEC10 [1, 3] was -6.93, the SR-ScorePPARγ ([1]; SR-Score, sigma k=1, x=5) was 1.00 and the “Specificity ratio (SRbaseline) SRPPARγ” value ([1]; against baseline cytotoxicity) was 12.28. For the same compound, the “Specificity ratio (SRcytotoxicity) SRPPARγ” value ([1]; against experimental cytotoxicity) was 54.95, the “EC10, PPARγ” value ([1]; effect) was 0.117 µM and the “log(1/EC10) PPARγ” value ([1]; input of the ToxPi score, values up to 1.00) was 0.98. For the same compound, the Emax ([1]; read-out: Emax%PPARγ) was 22%, the “EC10, linear” value [2] was “no effect” and the logEC10 [2] was “no effect”. For the same compound, the “log(1/EC10) AhR” value [2] was 0.96.

For `CC1(C)[C@H](O)C(C)(C)[C@H]1O` [t-TMCD, trans-2,2,4,4-Tetramethyl-1,3-cyclobutanediol], the “log(1/EC10) AhR” value [2] was 0.30.
